According to patent US20240424107A1, “PREPARATION OF SITE-SPECIFIC POLYPEPTIDE CONJUGATES” (POSTECH RESEARCH AND BUSINESS DEVELOPMENT FOUNDATION, priority 2023, published 2024):

Target: T1, Human-alpha thrombin (Homo sapiens, UniProt P00734)
T1 construct: Human-alpha thrombin and its well-known aptamers, HD1
Experiment: Covalent conjugation of oxanine-containing aptamer to thrombin, conversion rate over time (SDS-PAGE/electrophoresis)
Format: biochemical
Conditions: thrombin 1.25 μM, HEPES pH 8.4, 37° C., FIG. 3
Protocol: Human-alpha thrombin and its well-known aptamers, HD1 (15-mer length of aptamer that binds to exosite I of thrombin; 5′-[…]-3′; SEQ ID NO: 1) and HD2 (29-mer length of aptamer that binds to exosite II of thrombin; 5′-[…]-3′; SEQ ID NO: 2) were used. Each aptamer labeled with fluorescent dye at 5′-terminus and 10 dOTPs at 3′-terminus was prepared (See Example 1-1) and mixed with thrombin. Specifically, thrombin (1.25 μM), NaCl (100 mM), MgCl2 (5 mM), KCl (5 mM), Tween-20 (0.01% v/v), and oxanine-inserted HD1 (1 equiv. relative to thrombin) and HD2 (2 equiv. relative to thrombin) in HEPES (50 mM pH 8.4) were mixed at 37° C. for 1 day.
Whether the aptamer brings oxanine close to the amine group of the target protein, enabling proximity-enhanced covalent bond formation, was monitored with SDS-PAGE (protein bands) and electrophoresis (DNA bands). As a comparison group, aptamers HD1 and HD2 without oxanine introduced, or random DNA (not aptamer) with oxanine introduced, were used, and an untreated control group without any treatment with thrombin was also used for comparison.

Substance	time to reach 50% modification rate (conversion of aptamer to aptamer-thrombin conjugate) [min]
HD1: 15-mer thrombin exosite I aptamer 5′-GGTTGGTGTGGTTGG-3′ with fluorescent dye at 5′-terminus and 10 dOTPs (oxanine) at 3′-terminus (DNA, backbone not given here; 5' fluorescent dye, 3' tail of ten oxanine deoxynucleotides)	≤ 12.6
HD22: 29-mer thrombin exosite II aptamer 5′-AGTCCGTGGTAGGGCAGGTTGGGGTGACT-3′ with fluorescent dye at 5′-terminus and 10 dOTPs (oxanine) at 3′-terminus (DNA, backbone not given here; 5' fluorescent dye, 3' tail of ten oxanine deoxynucleotides)	≤ 101
